These results are taken from patent publication US9120812B2, “Pyrimidooxazocine derivatives as mTOR-inhibitors” (SANOFI, priority 2012, dated 2015).

For assay [1], the target named is mTOR (human recombinant aa mTOR 1360-2549) (Homo sapiens (Human), UniProt P42345). Put plainly: mTOR enzymatic test by TR-FRET (phosphorylation of GFP-4EBP1). It is filed as biochemical. In outline: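 TR-FRET detection of GFP-4EBP1 phosphorylation by a terbium-labelled anti-phospho-Thr46 antibody. Kinase reaction ran 30 min at room temperature, was quenched with EDTA (10 mM final) plus Tb-antibody (2 nM final) and left 60 min. Emission at 520 and 490 nm after 340 nm excitation, reported as the 520/490 ratio.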
mTOR (human recombinant aa mTOR 1360-2549), sequence (P42345 1360-2549): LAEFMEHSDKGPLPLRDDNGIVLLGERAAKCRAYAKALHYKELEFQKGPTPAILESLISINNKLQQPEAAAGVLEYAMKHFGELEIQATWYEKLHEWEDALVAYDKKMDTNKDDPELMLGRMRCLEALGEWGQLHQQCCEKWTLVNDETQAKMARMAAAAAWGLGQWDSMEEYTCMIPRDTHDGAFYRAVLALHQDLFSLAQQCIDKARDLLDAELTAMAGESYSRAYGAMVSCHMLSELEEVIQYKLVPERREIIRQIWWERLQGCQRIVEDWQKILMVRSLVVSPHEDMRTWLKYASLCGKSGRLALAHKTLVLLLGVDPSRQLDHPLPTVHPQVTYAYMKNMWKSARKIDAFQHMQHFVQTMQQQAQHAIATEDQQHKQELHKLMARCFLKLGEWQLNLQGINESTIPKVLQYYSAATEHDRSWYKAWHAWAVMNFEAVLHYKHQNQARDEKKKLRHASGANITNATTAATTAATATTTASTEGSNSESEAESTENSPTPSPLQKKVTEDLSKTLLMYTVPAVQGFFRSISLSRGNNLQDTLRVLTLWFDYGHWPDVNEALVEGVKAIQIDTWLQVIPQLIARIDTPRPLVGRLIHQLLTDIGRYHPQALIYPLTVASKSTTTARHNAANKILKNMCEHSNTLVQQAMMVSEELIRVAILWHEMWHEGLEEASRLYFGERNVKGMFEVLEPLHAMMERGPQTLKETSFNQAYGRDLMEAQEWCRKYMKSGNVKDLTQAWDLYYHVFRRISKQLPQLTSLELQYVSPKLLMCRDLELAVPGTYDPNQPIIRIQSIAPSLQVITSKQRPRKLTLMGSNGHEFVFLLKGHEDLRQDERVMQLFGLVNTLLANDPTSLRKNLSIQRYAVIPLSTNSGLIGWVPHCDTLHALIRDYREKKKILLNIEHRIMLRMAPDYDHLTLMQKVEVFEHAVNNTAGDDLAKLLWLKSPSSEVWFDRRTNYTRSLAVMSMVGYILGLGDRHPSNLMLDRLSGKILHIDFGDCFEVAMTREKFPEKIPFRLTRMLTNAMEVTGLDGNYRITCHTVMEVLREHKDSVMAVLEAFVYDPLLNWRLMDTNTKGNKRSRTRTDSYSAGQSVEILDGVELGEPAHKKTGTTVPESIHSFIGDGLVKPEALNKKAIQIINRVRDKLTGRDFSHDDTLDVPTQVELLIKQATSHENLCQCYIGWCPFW
In general terms: TR-FRET usually uses a lanthanide donor and a delayed reading to cut background.

A further assay has as its target PI3Kα (p110α/p85α) (Homo sapiens (Human), UniProt P42336). Put plainly: PI3Kα enzymatic test by measuring the consumption of ATP. It is filed as biochemical. In outline:
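p110α/p85α (1.7 μg/ml) with 50 μM PIP2 and 2 μM ATP in pH 7.5 Tris buffer with EGTA, MgCl2, Chaps, DTT; reaction 90 min. Remaining ATP measured by luciferin/luciferase luminescence; IC50 from threefold serial dilutions spanning at least 10 000-fold.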

A further assay relates to U87MG tumour cells. Put plainly: Test of in vitro proliferation of U87MG tumour cells. It is filed as cell-based. The settings on record: Homo sapiens, U-87 MG, 72 h, U87MG cells, 72 hours; read-out: U87 Cell Proliferation IC50. As to the method:
Model 4: Test of in vitro Proliferation of U87MG Tumour Cells.
The cell growth is determined with the reagent CellTiter 96 AQueous One Solution Cell Proliferation Assay from Promega (Cat. No. G3581).

A further assay relates to Akt-pS473 in U87MG cells. The following applies: Homo sapiens, U-87 MG, read-out: U87 Akt-pS473 % Inhibition or IC50, nM (IC50), U87MG cells.

PI3Kα (p110α/p85α), sequence (P42336 whole entry): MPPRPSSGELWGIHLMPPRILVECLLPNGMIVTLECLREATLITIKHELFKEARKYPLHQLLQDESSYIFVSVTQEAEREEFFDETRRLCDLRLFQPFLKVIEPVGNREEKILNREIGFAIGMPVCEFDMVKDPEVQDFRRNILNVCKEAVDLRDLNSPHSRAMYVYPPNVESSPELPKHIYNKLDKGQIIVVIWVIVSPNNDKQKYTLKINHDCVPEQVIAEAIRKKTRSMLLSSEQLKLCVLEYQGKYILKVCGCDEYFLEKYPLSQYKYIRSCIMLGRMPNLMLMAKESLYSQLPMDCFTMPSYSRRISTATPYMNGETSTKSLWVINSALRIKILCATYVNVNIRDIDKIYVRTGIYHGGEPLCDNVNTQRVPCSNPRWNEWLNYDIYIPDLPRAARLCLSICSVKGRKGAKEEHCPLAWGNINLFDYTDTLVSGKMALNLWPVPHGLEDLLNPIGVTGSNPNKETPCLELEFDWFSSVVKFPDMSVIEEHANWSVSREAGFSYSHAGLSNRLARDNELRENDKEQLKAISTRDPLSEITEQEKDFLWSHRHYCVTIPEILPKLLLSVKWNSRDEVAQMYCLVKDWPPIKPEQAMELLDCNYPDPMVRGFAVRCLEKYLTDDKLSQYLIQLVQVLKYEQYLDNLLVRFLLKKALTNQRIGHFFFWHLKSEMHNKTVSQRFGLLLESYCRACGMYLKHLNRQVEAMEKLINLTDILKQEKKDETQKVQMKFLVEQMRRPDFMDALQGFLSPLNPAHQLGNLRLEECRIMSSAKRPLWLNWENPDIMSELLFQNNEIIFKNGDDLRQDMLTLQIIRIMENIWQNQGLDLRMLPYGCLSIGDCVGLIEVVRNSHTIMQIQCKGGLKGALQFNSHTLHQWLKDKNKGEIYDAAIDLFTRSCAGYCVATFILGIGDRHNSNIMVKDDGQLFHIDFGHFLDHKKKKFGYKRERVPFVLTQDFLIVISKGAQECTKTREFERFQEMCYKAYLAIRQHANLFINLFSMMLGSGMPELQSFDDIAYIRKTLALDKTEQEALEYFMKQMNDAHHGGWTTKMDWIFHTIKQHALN
PI3Kα (p110α/p85α), sequence (P27986 whole entry partner): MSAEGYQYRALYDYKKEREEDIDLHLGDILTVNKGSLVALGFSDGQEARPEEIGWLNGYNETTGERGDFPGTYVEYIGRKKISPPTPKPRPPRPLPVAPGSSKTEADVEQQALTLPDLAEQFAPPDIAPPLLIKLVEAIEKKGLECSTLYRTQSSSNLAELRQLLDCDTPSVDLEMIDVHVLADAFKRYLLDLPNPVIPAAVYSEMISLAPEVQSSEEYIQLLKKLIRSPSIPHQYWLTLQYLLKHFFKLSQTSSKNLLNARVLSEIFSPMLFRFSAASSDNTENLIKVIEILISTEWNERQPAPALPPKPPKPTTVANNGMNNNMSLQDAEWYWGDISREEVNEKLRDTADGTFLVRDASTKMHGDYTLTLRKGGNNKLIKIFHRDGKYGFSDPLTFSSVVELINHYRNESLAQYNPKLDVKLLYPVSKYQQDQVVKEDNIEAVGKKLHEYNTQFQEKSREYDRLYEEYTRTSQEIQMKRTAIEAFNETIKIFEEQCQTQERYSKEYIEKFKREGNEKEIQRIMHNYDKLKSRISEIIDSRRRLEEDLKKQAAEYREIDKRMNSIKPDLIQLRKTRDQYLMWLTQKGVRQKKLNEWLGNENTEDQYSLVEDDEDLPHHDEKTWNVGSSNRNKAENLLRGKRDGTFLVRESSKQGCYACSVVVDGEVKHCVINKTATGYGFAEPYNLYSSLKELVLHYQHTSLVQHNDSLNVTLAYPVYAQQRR

With `C[C@@H]1COCCN1c1ccc(NC(=O)Nc2ccc(-c3nc(N4CC5CCC(C4)O5)nc4c3C(=O)N(C)CC(C)(C)O4)cc2F)cn1` [Example 87, 1-{2-Fluoro-4-[6,8,8-trimethyl-2-(8-oxa-3-azabicyclo[3.2.1]oct-3-yl)-5-oxo-5,6,7,8-tetrahydro-9-oxa-1,3,6-triazabenzocyclohepten-4-yl]phenyl}-3-[6-((R)-3-methylmorpholin-4-yl)pyridin-3-yl]urea], the IC50 in assay [1] was 57 nM; in the assay with U87MG tumour cells, 59 nM; in the assay with Akt-pS473 in U87MG cells, 20 nM. Also, the “PI3Ka IC50” value on PI3Kα (p110α/p85α) was more than 10000 nM.
